How the values were obtained:
Type in all cases: in vivo
[1] = test system: Myzus persicae (Green Peach Aphid); test: Activity against Myzus persicae (green peach aphid), feeding/contact activity; details: 144 h, application rate of 200 ppm, mixed ages, 6 days after infestation
Protocol: Sunflower leaf discs were placed onto agar in a 24-well microtiter plate and sprayed with aqueous test solutions prepared from 10′000 ppm DMSO stock solutions. After drying, the leaf discs were infested with an aphid population of mixed ages. The samples were assessed for mortality 6 days after infestation.

[2] = test system: Myzus persicae (Green Peach Aphid); test: Activity against Myzus persicae (green peach aphid), systemic activity; details: 144 h, test rate of 24 ppm, pea seedling roots in test solution, 6 days
Protocol: Roots of pea seedlings infested with an aphid population of mixed ages were placed directly into aqueous test solutions prepared from 10′000 DMSO stock solutions. The samples were assessed for mortality 6 days after placing seedlings into test solutions.

[3] = test system: Euschistus heros (Neotropical Brown Stink Bug); test: Activity against Euschistus heros (neotropical brown stink bug), soybean leaves sprayed; details: 120 h, application rate of 200 ppm, N2 nymphs, 5 days after infestation, read-out: effect in at least one of the two categories (mortality or growth inhibition)
Protocol: Soybean leaves on agar in 24-well microtiter plates were sprayed with aqueous test solutions prepared from 10′000 ppm DMSO stock solutions. After drying the leaves were infested with N2 nymphs. The samples were assessed for mortality and growth inhibition in comparison to untreated samples 5 days after infestation.

[4] = test system: Chilo suppressalis (Striped Rice Stemborer); test: Activity against Chilo suppressalis (striped rice stemborer), artificial diet; details: 144 h, application rate of 200 ppm, L2 larvae, 6 days after infestation, read-out: control (mortality, anti-feeding effect, growth inhibition)
Protocol: 24-well microtiter plates with artificial diet were treated with aqueous test solutions prepared from 10′000 ppm DMSO stock solutions by pipetting. After drying, the plates were infested with L2 larvae (6-8 per well). The samples were assessed for mortality, anti-feeding effect, and growth inhibition in comparison to untreated samples 6 days after infestation. Control of Chilo suppressalis by a test sample is given when at least one of the categories mortality, anti-feedant effect, and growth inhibition is higher than the untreated sample.

[5] = test system: Spodoptera littoralis (Egyptian Cotton Leaf Worm); test: Activity against Spodoptera littoralis (Egyptian cotton leaf worm), cotton leaf discs sprayed; details: foliar, 72 h, application rate of 200 ppm, L1 larvae, 3 days after infestation, read-out: control (mortality, anti-feeding effect, growth inhibition)
Protocol: Cotton leaf discs were placed onto agar in 24-well microtiter plates and sprayed with aqueous test solutions prepared from 10′000 ppm DMSO stock solutions. After drying the leaf discs were infested with five L1 larvae. The samples were assessed for mortality, anti-feeding effect, and growth inhibition in comparison to untreated samples 3 days after infestation. Control of Spodoptera littoralis by a test sample is given when at least one of the categories mortality, anti-feedant effect, and growth inhibition is higher than the untreated sample.

[6] = test system: Plutella xylostella (Diamond Back Moth); test: Activity against Plutella xylostella (diamond back moth), artificial diet; details: 192 h, application rate of 200 ppm, eggs, 8 days after infestation, read-out: effect in at least one of the two categories (mortality or growth inhibition)
Protocol: 24-well microtiter plates with artificial diet were treated with aqueous test solutions prepared from 10′000 ppm DMSO stock solutions by pipetting. After drying, Plutella eggs were pipetted through a plastic stencil onto a gel blotting paper and the plate was closed with it. The samples were assessed for mortality and growth inhibition in comparison to untreated samples 8 days after infestation.

[7] = test system: Nilaparvata lugens (Brown Plant Hopper); test: Activity against Nilaparvata lugens (brown plant hopper), larvicide, systemic into water; details: 168 h, application rate of 12.5 ppm, N3 nymphs, 7 days after infestation
Protocol: Larvicide, systemic into water Rice plants cultivated in a nutritive solution were treated with the diluted test solutions into nourishing cultivation system. 1 day after application plants were infested with ˜20 N3 nymphs. 7 days after infestation samples were assessed for mortality and growth regulation.

[8] = test system: Diabrotica Balteata (Corn Root Worm); test: Activity against Diabrotica balteata (corn root worm), maize sprouts sprayed; details: 96 h, application rate of 200 ppm, L2 larvae, 4 days after infestation, read-out: effect in at least one of the two categories (mortality or growth inhibition)
Protocol: Maize sprouts placed onto an agar layer in 24-well microtiter plates were treated with aqueous test solutions prepared from 10′000 ppm DMSO stock solutions by spraying. After drying, the plates were infested with L2 larvae (6 to 10 per well). The samples were assessed for mortality and growth inhibition in comparison to untreated samples 4 days after infestation.

[9] = test system: Carpocapsa (Cydia) Pomonella (Codling Moth); test: Activity against Carpocapsa (Cydia) pomonella (codling moth), larvicide, feeding/contact; details: 336 h, application rate of 12.5 ppm, L1 larvae, 14 days after infestation, read-out: effect in at least one of the two categories (mortality or growth inhibition)
Protocol: Diet cubes coated with paraffin were sprayed with diluted test solutions in an application chamber. After drying off the treated cubes (10 replicates) were infested with 1 L1 larvae. Samples were incubated at 26-27° C. and checked 14 days after infestation for mortality and growth inhibition. The following compounds gave an effect of at least 80% in at least one of the two categories (mortality or growth inhibition) at an application rate of 12.5 ppm: P1, P2, P3, P5, P9, P10, P11, P12, P14, P17, P19, P20, P21, P23, P24, P30, P31.

CCS(=O)(=O)c1cc(N(C)C(C)=O)cnc1-c1cc2c(cn1)N(CC(F)(F)C(F)(F)F)C(=O)CC2 [P8, N-[5-ethylsulfonyl-6-[2-oxo-1-(2,2,3,3,3-pentafluoropropyl)-3,4-dihydro-1,7-naphthyridin-6-yl]-3-pyridyl]-N-methyl-acetamide]
≥ 80%: mortality at 200 ppm [1] | mortality at 24 ppm [2] | percent effect (mortality or growth inhibition) at 200 ppm [3] | mortality at 200 ppm [4] | mortality at 200 ppm [5] | percent effect (mortality or growth inhibition) at 200 ppm [6]

CCS(=O)(=O)c1cc(C(F)(F)F)cnc1-c1cc2c(cn1)N(CC(F)(F)C(F)(F)F)C(=O)CC2 [P9, 6-[3-ethylsulfonyl-5-(trifluoromethyl)-2-pyridyl]-1-(2,2,3,3,3-pentafluoropropyl)-3,4-dihydro-1,7-naphthyridin-2-one]
≥ 80%: mortality at 200 ppm [1] | mortality at 200 ppm [4] | mortality at 12.5 ppm [7] | mortality at 200 ppm [5] | percent effect (mortality or growth inhibition) at 200 ppm [8] | percent effect (mortality or growth inhibition) at 200 ppm [6] | percent effect (mortality or growth inhibition) at 12.5 ppm [9]

CCS(=O)(=O)c1cc(C(F)(F)F)cnc1-c1cc2c(cn1)N(CC(F)(F)C(F)(F)F)C(=O)OC2 [P10, 6-[3-ethylsulfonyl-5-(trifluoromethyl)-2-pyridyl]-1-(2,2,3,3,3-pentafluoropropyl)-4H-pyrido[3,4-d][1,3]oxazin-2-one]
≥ 80%: mortality at 200 ppm [1] | mortality at 200 ppm [4] | mortality at 12.5 ppm [7] | mortality at 200 ppm [5] | percent effect (mortality or growth inhibition) at 200 ppm [8] | percent effect (mortality or growth inhibition) at 200 ppm [6] | percent effect (mortality or growth inhibition) at 12.5 ppm [9]

CCS(=O)(=O)c1ccc(C2CC2)nc1-c1cc2c(cn1)N(CC(F)(F)C(F)(F)F)C(=O)CC2 [P14, 6-(6-cyclopropyl-3-ethylsulfonyl-2-pyridyl)-1-(2,2,3,3,3-pentafluoropropyl)-3,4-dihydro-1,7-naphthyridin-2-one]
≥ 80%: mortality at 200 ppm [1] | mortality at 200 ppm [4] | mortality at 12.5 ppm [7] | mortality at 200 ppm [5] | percent effect (mortality or growth inhibition) at 200 ppm [8] | percent effect (mortality or growth inhibition) at 200 ppm [6] | percent effect (mortality or growth inhibition) at 12.5 ppm [9]

CCS(=O)(=O)c1cc(C(C)(C)C#N)cnc1-c1cc2c(cn1)N(CC(F)(F)C(F)(F)F)C(=O)OC2 [P15, 2-[5-ethylsulfonyl-6-[2-oxo-1-(2,2,3,3,3-pentafluoropropyl)-4H-pyrido[3,4-d][1,3]oxazin-6-yl]-3-pyridyl]-2-methyl-propanenitrile]
≥ 80%: mortality at 200 ppm [1] | mortality at 24 ppm [2] | percent effect (mortality or growth inhibition) at 200 ppm [3] | mortality at 200 ppm [4] | mortality at 200 ppm [5] | percent effect (mortality or growth inhibition) at 200 ppm [8] | percent effect (mortality or growth inhibition) at 200 ppm [6]

CCS(=O)(=O)c1ccc(C2CC2)nc1-c1cc2c(cn1)N(CC(F)(F)C(F)(F)F)C(=O)OC2 [P17, 6-(6-cyclopropyl-3-ethylsulfonyl-2-pyridyl)-1-(2,2,3,3,3-pentafluoropropyl)-4H-pyrido[3,4-d][1,3]oxazin-2-one]
≥ 80%: mortality at 200 ppm [1] | mortality at 200 ppm [4] | mortality at 12.5 ppm [7] | mortality at 200 ppm [5] | percent effect (mortality or growth inhibition) at 200 ppm [8] | percent effect (mortality or growth inhibition) at 200 ppm [6] | percent effect (mortality or growth inhibition) at 12.5 ppm [9]

CCS(=O)(=O)c1cc(N(C)C(C)=O)cnc1-c1cc2c(cn1)N(CC(F)(F)C(F)(F)F)C(=O)OC2 [P18, N-[5-ethylsulfonyl-6-[2-oxo-1-(2,2,3,3,3-pentafluoropropyl)-4H-pyrido[3,4-d][1,3]oxazin-6-yl]-3-pyridyl]-N-methyl-acetamide]
≥ 80%: mortality at 200 ppm [1] | mortality at 24 ppm [2] | mortality at 200 ppm [4] | mortality at 200 ppm [5] | percent effect (mortality or growth inhibition) at 200 ppm [6]

CCS(=O)(=O)c1cc(OC(C)(C)C#N)cnc1-c1cc2c(cn1)N(CC(F)(F)C(F)(F)F)C(=O)CC2 [P20, 2-[[5-ethylsulfonyl-6-[2-oxo-1-(2,2,3,3,3-pentafluoropropyl)-3,4-dihydro-1,7-naphthyridin-6-yl]-3-pyridyl]oxy]-2-methyl-propanenitrile]
≥ 80%: mortality at 200 ppm [1] | percent effect (mortality or growth inhibition) at 200 ppm [3] | mortality at 200 ppm [4] | mortality at 12.5 ppm [7] | mortality at 200 ppm [5] | percent effect (mortality or growth inhibition) at 200 ppm [8] | percent effect (mortality or growth inhibition) at 200 ppm [6] | percent effect (mortality or growth inhibition) at 12.5 ppm [9]

CCS(=O)(=O)c1ccc(-c2ncccn2)nc1-c1cc2c(cn1)N(CC(F)(F)C(F)(F)F)C(=O)CC2 [P22, 6-(3-ethylsulfonyl-6-pyrimidin-2-yl-2-pyridyl)-1-(2,2,3,3,3-pentafluoropropyl)-3,4-dihydro-1,7-naphthyridin-2-one]
≥ 80%: mortality at 200 ppm [1] | mortality at 24 ppm [2] | percent effect (mortality or growth inhibition) at 200 ppm [3] | mortality at 200 ppm [4] | mortality at 200 ppm [5] | percent effect (mortality or growth inhibition) at 200 ppm [8] | percent effect (mortality or growth inhibition) at 200 ppm [6]

CCS(=O)(=O)c1cc(OCC(C)(F)F)cnc1-c1cc2c(cn1)N(CC(F)(F)C(F)(F)F)C(=O)CC2 [P24, 6-[5-(2,2-difluoropropoxy)-3-ethylsulfonyl-2-pyridyl]-1-(2,2,3,3,3-pentafluoropropyl)-3,4-dihydro-1,7-naphthyridin-2-one]
≥ 80%: mortality at 200 ppm [1] | percent effect (mortality or growth inhibition) at 200 ppm [3] | mortality at 200 ppm [4] | mortality at 12.5 ppm [7] | mortality at 200 ppm [5] | percent effect (mortality or growth inhibition) at 200 ppm [8] | percent effect (mortality or growth inhibition) at 200 ppm [6] | percent effect (mortality or growth inhibition) at 12.5 ppm [9]

CCS(=O)(=O)c1cc(OCC(C)(F)F)cnc1-c1cc2c(cn1)N(CC(F)(F)C(F)(F)F)C(=O)OC2 [P31, 6-[5-(2,2-difluoropropoxy)-3-ethylsulfonyl-2-pyridyl]-1-(2,2,3,3,3-pentafluoropropyl)-4H-pyrido[3,4-d][1,3]oxazin-2-one]
≥ 80%: mortality at 200 ppm [4] | mortality at 12.5 ppm [7] | mortality at 200 ppm [5] | percent effect (mortality or growth inhibition) at 200 ppm [8] | percent effect (mortality or growth inhibition) at 200 ppm [6] | percent effect (mortality or growth inhibition) at 12.5 ppm [9]

CCS(=O)(=O)c1cc(C2(C#N)CC2)cnc1-c1cc2c(cn1)N(CC(F)(F)F)C(=O)OC2 [P34, 1-[5-ethylsulfonyl-6-[2-oxo-1-(2,2,2-trifluoroethyl)-4H-pyrido[3,4-d][1,3]oxazin-6-yl]-3-pyridyl]cyclopropanecarbonitrile]
≥ 80%: mortality at 200 ppm [1] | mortality at 24 ppm [2] | percent effect (mortality or growth inhibition) at 200 ppm [8] | percent effect (mortality or growth inhibition) at 200 ppm [6]

Reference: US20240122182A1, “PESTICIDALLY ACTIVE HETEROCYCLIC DERIVATIVES WITH SULFUR CONTAINING SUBSTITUENTS” (SYNGENTA CROP PROTECTION AG, priority 2021, published 2024)
